According to patent EP2150534B1, “ISOQUINOLINONE DERIVATIVES AS NK3 ANTAGONISTS” (H. Lundbeck A/S, priority 2007, dated 2008):
Like-named read-outs stand apart in the source and are kept apart here.

Experiments:
human NK3 receptor [1] = target: T1, human NK3 receptor (Homo sapiens, UniProt P29371); test: NK3 receptor binding assay (SPA-based competition binding with 125I-NKB, membranes of BHK cells)
T1 construct: expressed in transfected cells; membranes prepared from them
T1 sequence (P29371 1-465): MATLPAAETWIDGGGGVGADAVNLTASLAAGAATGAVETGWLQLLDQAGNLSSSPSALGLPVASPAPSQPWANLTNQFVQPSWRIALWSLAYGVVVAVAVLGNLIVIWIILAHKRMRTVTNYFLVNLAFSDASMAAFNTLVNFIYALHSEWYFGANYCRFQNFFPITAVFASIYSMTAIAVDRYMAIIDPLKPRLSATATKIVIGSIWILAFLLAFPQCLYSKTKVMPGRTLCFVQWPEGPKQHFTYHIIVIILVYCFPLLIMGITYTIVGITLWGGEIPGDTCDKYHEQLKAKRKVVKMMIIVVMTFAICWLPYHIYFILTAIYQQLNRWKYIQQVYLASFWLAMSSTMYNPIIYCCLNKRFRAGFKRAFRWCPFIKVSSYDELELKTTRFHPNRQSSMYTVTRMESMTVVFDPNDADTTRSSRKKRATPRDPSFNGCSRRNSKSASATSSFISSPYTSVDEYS
Procedure: Membranepreparation: BHK cells stably expressing the human NK3 receptor were seeded in harvesting plates in Dulbeccos MEM containing GlutaMax (862 mg/l), 1 mM sodium pyruvate, 10% fetal calf serum, 1% Pen/Strep, I mg/ml G418 and were grown at 34 °C in a humidified atmosphere containing 10% CO2. To increase receptor expression, 10 µM trichotatin A was added to the media 24 hours before harvest of the cells at a confluency of app 90%. Prior to the harvesting, the cells were washed twice with PBS without Mg^2+ og Ca^2+ and subsequently scrapped of in 10 ml PBS pr harvesting plate. The cells suspension were centrifuged at 1500xG in three minutes before resuspension in 15 mM Tris-HCl pH 7,5 buffer containing 2 mM MgCl2; 0,3 mM EDTA and 1 mM EGTA (buffer A). The cell suspention was homogenised and subsequently centrifuged at 40000xG in 30 minutes. The membrane-pellet was resuspended in buffer A containing 250 mM sucrose, alliquoted and stored at - 80°C.
Affinity assay description: The assay was performed as a SPA-based competition-binding assay in a 50 mM Tris pH 7.4 assay buffer containing 120 mM NaCl, 3 mM MnCl2, 40 µg/ml bacitracin, 2 µg/ml Chymostatin, 1 µg/ml Phosphoramidon and 4 µg/ml Leupeptin. App 0.02 nM ^125I-NKB was mixed with test compounds before addition of 4 µg of the homogenised NK3 membrane preparation and 0,025 mg SPA beads in a total volume of 60 µl. The assay plate was subsequently under agitation incubated for 90 min at RT. The plate was centrifugated 10 minutes at 500xG and counted in a topcounter 5 minuttes pr well.
The non-specific binding constituted app 5 % of the total binding.
Data points were expressed in percent of the specific binding of ^125I-NKB and the IC50 values (concentration causing 50 percent inhibition of ^125I-NKB specific binding) were determined by non-linear regression analysis using a sigmoidal variable slope curve fitting. The dissociation constant (Ki) were calculated from the Cheng Prusoff equation (Ki = IG50/(1+(L/KD))), where the concentration of free radioligand L is approximated to the concentration of added ^125I-NKB in the assay (app 0,02 nM).
The KD of ^125I-NKB was determined to be 0,7 nM from three independent saturation assays each performed with duplicate determinations. Bmax was app 2 pmol/mg.

human NK3 receptor [2] = target: T1, human NK3 receptor; test: NK3 receptor efficacy and potency assay (FLIPR Calcium 4 assay, BHK cells; agonist and antagonist mode versus NKB); type: cell-based; conditions: read-out: Potency cIC50
Procedure: BHK cells stably expressing the human NK3 receptor were seeded in 100 µl media in black walled clear-base 96-wells plates (Costar) aiming at a confluency of 95-100% at the day of assay. The assay was performed according to the FLIPR Calcium 4 Assay kit (Molecular Devices). At the day of the assay, the media was removed and the cells were washed once with the HBSS buffer (Hanks BSS buffer, pH 7,4 containing 20 mM Hepes) before 100 µl of a solution of the calcium assay reagent dissolved in the HBSS buffer containing 2,5 mM probinicid was added to the cells. The plates were incubated for 60 min at 34°C, 10% CO2 before use in the FLIPR for examination of fluorescence.
For efficacy and potency evaluation of compounds, these were diluted in HBSS buffer prior to test. For test of agonist activity, 25 µl of the diluted compound solution was added and the plate was analyzed for 5 minutes in the FLIPR. […] The plates were subsequently analyzed for 5 minutes before the assay was terminated. The maximal increase in fluorescence over background following each ligand addition was determined.

[3] = table of Example 10, affinity obtained as described in Example 9, read-out: Affinity Ki
[4] = Ki for the NK3 receptor, table of Example 9, 125I-NKB competition binding, read-out: Ki

| SMILES | Ki (human NK3 receptor [1]; [3]) [nM] | IC50 (human NK3 receptor [2]) [nM] | Ki (human NK3 receptor [1]; [4]) [nM] |
| --- | --- | --- | --- |
| CC[C@H](NC(=O)c1c(CNC(C)(C)C)n(-c2ccccc2)c(=O)c2ccccc12)c1ccccc1 [Example 2ec, 3-(tert-Butylamino-methyl)-1-oxo-2-phenyl-1,2-dihydro-isoquinoline-4-carboxylic acid ((S)-1-phenyl-propyl)-amide] | 210 | 520 | – |
| CCC(CO)NCc1c(C(=O)N[C@@H](CC)c2ccccc2)c2ccccc2c(=O)n1-c1ccccc1 (stereo partly drawn) [Example 2eg, 3-[(1-Hydroxymethyl-propylamino)-methyl]-1-oxo-2-phenyl-1,2-dihydro-isoquinoline-4-carboxylic acid ((S)-1-phenyl-propyl)-amide] | 240 | 610 | – |
| CC[C@H](NC(=O)c1c(CN2CCC(O)(c3cccc(OC)c3)CC2)n(-c2ccccc2)c(=O)c2ccccc12)c1ccccc1 [Example 2gt, 3-[4-Hydroxy-4-(3-methoxy-phenyl)-piperidin-1-ylmethyl]-1-oxo-2-phenyl-1,2-dihydro-isoquinoline-4-carboxylic acid ((S)-1-phenyl-propyl)-amide] | 9.2 | 22 | – |
| O=C(NC(c1cccc(F)c1)C1CC1)c1c(CN2CCN(CCN3CCOCC3)CC2)n(-c2ccccc2)c(=O)c2ccccc12 (centres unmarked) [Example 2hs] | 7.5 | 21 | 5.3 |
| O=C(NC(c1cccc(F)c1)C1CC1)c1c(CN2CCN(CCN3CCCCC3)CC2)n(-c2ccccc2)c(=O)c2ccccc12 (centres unmarked) [Example 2hu, 1-Oxo-2-phenyl-3-[4-(2-piperidin-1-yl-ethyl)-piperazin-1-ylmethyl]-1,2-dihydro-isoquinoline-4-carboxylic acid [cyclopropyl-(3-fluoro-phenyl)-methyl]-amide] | 6.2 | 29 | – |
| O=C(NC(c1cccc(F)c1)C1CC1)c1c(CN2CCN(CCN3CCCC3)CC2)n(-c2ccccc2)c(=O)c2ccccc12 (centres unmarked) [Example 2hv, 1-Oxo-2-phenyl-3-[4-(2-pyrrolidin-1-yl-ethyl)-piperazin-1-ylmethyl]-1,2-dihydro-isoquinolinc-4-carboxylic acid [cyclopropyl-(3-fluoro-phenyl)-methyl]-amide] | 14 | 35 | – |
| O=C(NC(c1cccc(F)c1)C1CC1)c1c(CN2CCC(O)(c3ccncc3)CC2)n(-c2ccccc2)c(=O)c2ccccc12 (centres unmarked) [Example 2hx, 3-(4-Hydroxy-3,4,5,6-tetrahydro-2H-[4,4']bipyridinyl-1-ylmethyl)-1-oxo-2-phenyl-1,2-dihydro-isoquinoline-4-carboxylic acid [cyclopropyl-(3-fluoro-phenyl)-methyl]-amide] | 9.3 | 68 | – |
| O=C(NC(c1cccc(F)c1)C1CC1)c1c(CN2CCC(CCN3CCOCC3)CC2)n(-c2ccccc2)c(=O)c2ccccc12 (centres unmarked) [Example 2hy, 3-[4-(2-Morpholin-4-yl-ethyl)-piperidin-1-ylmethyl]-1-oxo-2-phenyl-1,2-dihydro-isoquinoline-4-carboxylic acid [cyclopropyl-(3-fluoro-phenyl)-methyl]-amide] | 8.8 | 63 | – |
| COc1cccc(C2(O)CCN(Cc3c(C(=O)NC(c4cccc(F)c4)C4CC4)c4ccccc4c(=O)n3-c3ccccc3)CC2)c1 (centres unmarked) [Example 2hz, 3-[4-Hydroxy-4-(3-methoxy-phenyl)-piperidin-1-ylmethyl]-1-oxo-2-phenyl-1,2-dihydro-isoquinoline-4-carboxylic acid [cyclopropyl-(3-fluoro-phenyl)-methyl]-amide] | 4.5 | 35 | 3 |
| CC(=O)N(C)C1(c2ccccc2)CCN(Cc2c(C(=O)NC(c3cccc(F)c3)C3CC3)c3ccccc3c(=O)n2-c2ccccc2)CC1 (centres unmarked) [Example 2ia, 3-[4-(Acetyl-methyl-amino)-4-phenyl-piperidin-1-ylmethyl]-1-oxo-2-phenyl-1,2-dihydro-isoquinoline-4-carboxylic acid [cyclopropyl-(3-fluoro-phenyl)-methyl]-amide] | 12 | 100 | – |
| CC[C@H](NC(=O)c1c(CN2CCC(O)(c3cccc(OC)c3)CC2)n(-c2cccc(F)c2)c(=O)c2ccccc12)c1ccccc1 [Example 2iy, 2-(3-Fluoro-phenyl)-3-[4-hydroxy-4-(3-methoxy-phenyl)-piperidin-1-ylmethyl]-1-oxo-1,2-dihydro-isoquinoline-4-carboxylic acid ((S)-1-phenyl-propyl)-amide] | 17 | 92 | – |
| CC[C@H](NC(=O)c1c(CN2CCCNCC2)n(-c2ccccc2)c(=O)c2c(Cl)cccc12)c1ccccc1 [Example 2kh, 8-Chloro-3-[1,4]diazepan-1-ylmethyl-1-oxo-2-phenyl-1,2-dihydro-isoquinoline-4-carboxylic acid ((S)-1-phenyl-propyl)-amide] | 82 | 120 | – |

Further lines, with some results ahead:

| Ki (human NK3 receptor [1]; [3]) [nM] | IC50 (human NK3 receptor [2]) [nM] | SMILES | Ki (human NK3 receptor [1]; [4]) [nM] |
| --- | --- | --- | --- |
| 330 | 470 | CC[C@H](NC(=O)c1c(CNCC2CC2)n(-c2ccccc2)c(=O)c2ccccc12)c1ccccc1 [Example 2e, 3-[(Cyclopropylmethyl-amino)-methyl]-1-oxo-2-phenyl-1,2-dihydro-isoquinoline-4-carboxylic acid ((S)-1-phenyl-propyl)-amide] | – |
| 140 | 240 | CC[C@H](NC(=O)c1c(CN2CC[C@H](O)C2)n(-c2ccccc2)c(=O)c2ccccc12)c1ccccc1 [Example 2es, 3-((S)-3-Hydroxy-pyrrolidin-1-ylmethyl)-1-oxo-2-phenyl-1,2-dihydro-isoquinoline-4-carboxylic acid ((S)-1-phenyl-propyl)-amide] | – |
| 240 | 480 | CC[C@H](NC(=O)c1c(CN2CCC2)n(-c2ccccc2)c(=O)c2ccccc12)c1ccccc1 [Example 2ey, 3-Azetidin-1-ylmethyl-1-oxo-2-phenyl-1,2-dihydro-isoquinoline-4-carboxylic acid ((S)-1-phenyl-propyl)-amide] | – |
| 33 | 140 | CC[C@H](NC(=O)c1c(CN2CCN(c3ccc4ncccc4c3)CC2)n(-c2ccccc2)c(=O)c2ccccc12)c1ccccc1 [Example 2fm, 1-Oxo-2-phenyl-3-(4-quinolin-6-yl-piperazin-1-ylmethyl)-1,2-dihydro-isoquinoline-4-carboxylic acid ((S)-1-phenyl-propyl)-amide] | – |
| 10 | 44 | O=C(NC(c1cccc(F)c1)C1CC1)c1c(CN2CCN(CCc3ccccc3)CC2)n(-c2ccccc2)c(=O)c2ccccc12 (centres unmarked) [Example 2hq, 1-Oxo-3-(4-phenethyl-piperazin-1-ylmethyl)-2-phenyl-1,2-dihydro-isoquinoline-4-carboxylic acid [cyclopropyl-(3-fluoro-phenyl)-methyl]-amide] | – |
| 8.2 | 63 | O=C(NC(c1cccc(F)c1)C1CC1)c1c(CN2CCN(Cc3ccncc3)CC2)n(-c2ccccc2)c(=O)c2ccccc12 (centres unmarked) [Example 2hw, 1-Oxo-2-phenyl-3-(4-pyridin4-methyl-piperazin-1-ylmethyl)-1,2-dihydro-isoquinoline-4-carboxylic acid [cyclopropyl-(3-fluoro-phenyl)-methyl]-amide] | – |
